Assay [1] relates to MCF7. Put plainly: Inhibition of MCF-7 cancer cell proliferation. The assay is classed as functional, cell-based. Particulars: Homo sapiens.
The target in assay [2] is T1, Estrogen receptor (Homo sapiens, UniProt P03372).
T1 sequence (P03372 whole entry): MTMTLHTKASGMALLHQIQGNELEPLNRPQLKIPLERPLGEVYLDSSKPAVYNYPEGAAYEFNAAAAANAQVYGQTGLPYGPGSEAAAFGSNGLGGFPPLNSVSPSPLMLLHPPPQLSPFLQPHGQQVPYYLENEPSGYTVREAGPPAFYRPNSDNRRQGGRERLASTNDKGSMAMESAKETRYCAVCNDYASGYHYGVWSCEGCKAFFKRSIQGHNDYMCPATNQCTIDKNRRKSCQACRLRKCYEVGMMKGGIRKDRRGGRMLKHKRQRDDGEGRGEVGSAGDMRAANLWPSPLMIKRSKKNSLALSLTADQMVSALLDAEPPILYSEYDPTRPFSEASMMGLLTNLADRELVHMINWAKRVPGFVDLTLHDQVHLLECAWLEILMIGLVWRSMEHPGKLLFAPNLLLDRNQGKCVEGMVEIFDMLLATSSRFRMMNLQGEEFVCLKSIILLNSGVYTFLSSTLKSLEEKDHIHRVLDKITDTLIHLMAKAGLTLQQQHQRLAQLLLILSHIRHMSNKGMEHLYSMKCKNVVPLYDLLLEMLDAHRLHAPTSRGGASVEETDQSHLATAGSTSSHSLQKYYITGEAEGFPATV
Description: Binding affinity for human estrogen receptor alpha

The target in assay [3] is Estrogen receptor beta (Homo sapiens, UniProt Q92731).
Chain of Estrogen receptor beta (Q92731 whole entry): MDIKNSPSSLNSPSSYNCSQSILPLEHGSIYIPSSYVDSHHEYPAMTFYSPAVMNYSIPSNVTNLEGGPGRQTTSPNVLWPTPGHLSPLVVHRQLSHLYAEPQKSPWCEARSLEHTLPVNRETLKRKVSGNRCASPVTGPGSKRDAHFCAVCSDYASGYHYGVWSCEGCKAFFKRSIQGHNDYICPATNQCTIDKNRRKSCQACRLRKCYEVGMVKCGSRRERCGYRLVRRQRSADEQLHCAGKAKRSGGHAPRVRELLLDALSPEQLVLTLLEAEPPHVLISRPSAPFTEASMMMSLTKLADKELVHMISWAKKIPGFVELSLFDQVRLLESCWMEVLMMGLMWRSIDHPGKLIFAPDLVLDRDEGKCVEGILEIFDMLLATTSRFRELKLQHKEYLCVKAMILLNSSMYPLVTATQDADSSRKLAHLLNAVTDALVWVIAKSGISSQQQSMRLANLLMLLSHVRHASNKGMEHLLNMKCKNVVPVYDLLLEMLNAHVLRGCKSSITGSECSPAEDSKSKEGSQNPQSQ
Description: Binding affinity for human estrogen receptor beta

Results on 11 compounds are retold here after ChEMBL document CHEMBL1148423, “Estrogen receptor ligands. Part 5: The SAR of dihydrobenzoxathiins containing modified basic side chains” (Bioorg Med Chem Lett, 2004).

Each structure is given as a SMILES string.

In the case of `CCN1CCN(c2ccc([C@@H]3Oc4ccc(O)cc4S[C@@H]3c3ccc(O)cc3)cc2)CC1`, the figures for the IC50 in assay [1], in assay [2] and in assay [3] were 1.4 nM, 1 nM and 27 nM, respectively.
Take `CN1CCCN(c2ccc([C@@H]3Oc4ccc(O)cc4S[C@@H]3c3ccc(O)cc3)cc2)CC1`: the IC50 (as a rule, the concentration that gives 50% inhibition) came to 29 nM in assay [1], 3.6 nM in assay [2] and 365 nM in assay [3].
As to `CN1CCN(c2ccc([C@@H]3Oc4ccc(O)cc4S[C@@H]3c3ccc(O)cc3)cc2)CC1`, the figures for the IC50 in assay [1], in assay [2] and in assay [3] were 3.4 nM, 1 nM and 59 nM, respectively.
The corresponding values for `Oc1ccc([C@H]2Sc3cc(O)ccc3O[C@H]2CCCN2CCCCC2)cc1` are 1.2 nM, 0.7 nM and 27 nM.
Taken in the same sequence, the figures for `Oc1ccc([C@H]2Sc3cc(O)ccc3O[C@H]2c2ccc(COCCN3CCCCC3)cc2)cc1` were 14.6 nM, 2.3 nM and 259 nM.
The corresponding values for `Oc1ccc([C@H]2Sc3cc(O)ccc3O[C@H]2c2ccc(CCCN3CCCCC3)cc2)cc1` are 6.7 nM, 1.4 nM and 186 nM.
As for `Oc1ccc([C@H]2Sc3cc(O)ccc3O[C@H]2c2ccc(C3CCNCC3)cc2)cc1`, the results for the IC50 in assay [1], in assay [2] and in assay [3] were 1.9 nM, 1.7 nM and 115 nM, respectively.
The corresponding values for `Oc1ccc([C@H]2Sc3cc(O)ccc3O[C@H]2c2ccc(N3CCNCC3)cc2)cc1` are 2.8 nM, 4.4 nM and 186 nM.
Taken in the same sequence, the figures for `Oc1ccc([C@H]2Sc3cc(O)ccc3O[C@H]2c2ccc(C3=CCNCC3)cc2)cc1` were 0.9 nM, 1.4 nM and 31 nM.
Consider `Oc1ccc([C@H]2Sc3cc(O)ccc3O[C@H]2c2ccc(CN3CCCCC3)cc2)cc1`, for which the figures for the IC50 in assay [2] and in assay [3] were 155 nM and 4370 nM, respectively.
`Oc1ccc([C@H]2Sc3cc(O)ccc3O[C@H]2c2ccc(N3CCCNCC3)cc2)cc1`: the IC50 in assay [1] was determined as 28 nM; in assay [2], 3.6 nM; in assay [3], 161 nM.
